Test results published in patent US9045505B2, “Nitric oxide donors” (University of Otago, priority 2006, dated 2015).

Assays:
rat liver mitochondria = test: Membrane potential-dependent uptake into isolated mitochondria (TPP-selective electrode); format: biochemical
Procedure: FIG. 8 is a trace showing the uptake of MitoSNAP and MitoNAP by energized mitochondria measured using an ion-selective electrode. For (a) and (b) mitochondria (2 mg protein/ml) were incubated in KCl buffer supplemented with rotenone in a stirred 3 ml chamber thermostatted at 37° C. and shielded from ambient light. An electrode selective for the TPP cation was inserted and calibrated by five sequential 1 μM additions of MitoNAP (a) or MitoSNAP (b). Succinate (10 mM) was then added to energize the mitochondria, followed by the uncoupler FCCP (0.5 μM). Rapid uptake of MitoNAP by energized mitochondria was observed and this was reversed by abolishing the membrane potential with the uncoupler FCCP (a). Energised mitochondria also rapidly accumulated MitoSNAP (b). However, in contrast to MitoNAP, uncoupling apparently led to only partial release of the accumulated MitoSNAP (b). This apparent incomplete release of MitoSNAP on uncoupling is presumably because MitoSNAP is converted to MitoNAP within mitochondria and this generates a different response from the electrode.
(§1) Mitochondrial incubations were usually in KCl buffer (120 mM KCl, 10 mM HEPES, 1 mM EGTA, 100 μM N,N-bis(2-bis[carboxymethyl]aminoethyl) glycine (DTPA) and 10 μM neocuproine, pH 7.2) with 10 mM succinate and 4 μg/ml rotenone in the dark at 37° C., unless stated otherwise. An electrode selective for the TPP moiety of MitoSNAP and MitoNAP was made and used as described previously (Asin-Cayuela, J., Manas, A. R., James, A. M., Smith, R. A. & Murphy, M. P. Fine-tuning the hydrophobicity of a mitochondria-targeted antioxidant. FEBS Letts. 571, 9-16 (2004)). Respiration rates were measured in a Clark type O2 electrode (Rank Brothers, UK). To measure GSH and GSSG, mitochondria (1 mg protein/ml) were incubated with 0-10 μM MitoSNO1 or MitoNAP for 10 min, pelleted by centrifugation and the GSH and GSSG contents assessed by the recycling assay (Scarlett, J. L., Packer, M. A., Porteous, C. M. & Murphy, M. P. Alterations to glutathione and nicotinamide nucleotides during the mitochondrial permeability transition induced by peroxynitrite. Biochem. Pharmacol. 52, 1047-1055 (1996)). The measurement of exposed mitochondrial protein thiols is described below.
Rat liver mitochondria (1 mg protein/ml) in KCl buffer was incubated at 37° C. with 5 μM MitoSNO. 1 μM additions of MitoSNO were made sequentially before addition of 10 mM succinate. 200 nM FCCP was then added to uncouple the mitochondria. The concentrations of O2 and MitoSNO in solution were measured simultaneously using a Clark-type O2 electrode in combination with an ion-selective electrode for triphenylphosphonium cation (TPP^+). […] This can be seen in FIG. 3.
When succinate was added, the mitochondria started respiring and set up a Δψ, which caused a decrease in the MitoSNO concentration, as detected by the ion-selective electrode (FIG. 3). When the mitochondria were uncoupled by FCCP, a concomitant increase in the concentration of MitoSNO, or its derivatives, in the medium was detected by the ion-selective electrode. The amount of MitoSNO taken up into the mitochondria from the trace in FIG. 3 corresponds to ˜2.5 μM of the initial external concentration of 5 μM. Therefore 7.5 nmol MitoSNO have been taken up into 3 mg protein, and as the mitochondrial volume is ˜0.5 μl/mg protein (Brown, G. C. and Brand, M. D. Biochem J., 1985, 225, 399-405), the concentration of MitoSNO within mitochondria is ˜5 mM. This represents a 2000 fold concentration relative to the 2.5 μM present in the external medium, and is consistent with a Nernstian uptake of MitoSNO.

liver mitochondria [1] = test: Exposed protein thiols, glutathionylation and GSH/GSSG in liver mitochondria; format: biochemical, rat; conditions: mitochondria; MitoSNAP 5 μM
Procedure: as §1
Small molecules were removed by centrifugation through MicroBioSpin Columns (cut off=6 kDa), the eluate was clarified by centrifugation (2 min at 10,000×g) and protein thiols measured in triplicate by mixing 10 μl sample or GSH standard with 160 μl of 200 μM dithionitrobenzoic acid (DTNB) in 80 mM NaPi, 1 mM EDTA, pH 8 in a 96 well plate and absorbance at 412 nm was measured after 30 min at room temperature and the thiol content determined from the GSH standard curve. The protein concentration was measured in parallel by the bicinchonininc assay using BSA as a standard.
The interaction of MitoSNAP with mitochondrial thiol proteins is likely to initiate a dynamic process that may lead to other protein thiol modifications, such as disulfide formation, glutathionylation, sulfenylation or sulfenylamide formation, in addition to persistent S-nitrosation. To assess these, the content of reactive, solvent-exposed thiols on native liver mitochondrial proteins was measured. […] This is consistent with the finding that the maximum extent of mitochondrial protein S-nitrosation by 5 μM MitoSNAP (˜500 pmol SNO/mg protein; FIG. 11) was only ˜1% of the total number of protein thiols available. A small amount of MitoSNAP binding to mitochondrial thiol proteins through the formation of mixed disulfides was detectable by immunoblotting.

[2] = tested on: liver or heart mitochondria; test: Visualisation of S-nitrosated mitochondrial proteins by Cy3 maleimide labelling; format: biochemical, rat; conditions: 10 μM MitoSNAP or 500 μM diamide, 5 min
Procedure: FIG. 11 is a series of graphs showing S-nitrosation of mitochondrial thiols by MitoSNAP. (a) Time course of S-nitrosation of mitochondrial proteins by MitoSNAP. Liver mitochondria (1 mg protein) were incubated in 1 ml KCl buffer supplemented with rotenone and succinate in the presence of 5 μM MitoSNAP. At various times mitochondria were treated with 10 mM N-ethylmaleimide (NEM), isolated by centrifugation and the S-nitrosothiol content assessed. Data are of a typical experiment showing means±range of duplicate samples for each time point, each measured in duplicate. The experiment was repeated twice. (b) S-nitrosation of mitochondrial proteins by different concentrations of MitoSNAP and SNAP. Aliquots of liver mitochondria were incubated with the indicated concentrations of MitoSNAP or SNAP for […] in the presence or absence of 500 nM FCCP and then assessed for S-nitrosothiol content as in (a). […] Data are of a typical experiment showing means±range of duplicate samples for each time point, each measured in duplicate. […] After further incubation for 5 min at 37° C. in the dark, the medium was removed and the content of S-nitrosated proteins was measured. […] S-nitrosated thiols were then selectively tagged with Cy3 maleimide and protein (10 μg) was then separated on a 12.5% SDS PAGE gel which was stained with coomassie blue and scanned for Cy3 fluorescence. […]

HeLa cells = test: Cell hypoxia experiment, extracellular pO2 by fluorescence quenching oximetry; format: cell-based; conditions: 1% O2, 30 min incubation, compared to untreated controls
Procedure: FIG. 10 is a series of traces and graphs showing the effect of MitoSNAP on respiration in cells. (a-d) Jurkat cells (55×10^6 cells) were incubated in PBS supplemented with 25 mM Hepes pH 7.2 (NaOH), 1 mM sodium pyruvate, 10 μM neocuproine and 100 μM DTPA in the stirred 2.5 ml chamber of an oxygen electrode at 37° C. with 5 μM MitoSNAP (a), MitoNAP (b), SNAP (c) or MitoSNAP and FCCP (500 nM) (d). Where indicated 5 μM OxyHb was added. Traces show typical experiments that were repeated at least three times. Sections of the 02 electrode trace where OxyHb was added for (a) and (b) have been expanded 4-fold in the vertical dimension to facilitate inspection. […] Cellular pO2 values, measured by fluorescence quenching oximetry and expressed as mean±sd, are shown. […]
HeLa cells were seeded and grown to 100% confluence with 15 ml medium/dish on 165 cm^2 dishes. […] Extracellular pO2 measurements were taken by fluorescence quenching oximetry (Oxylite-2000; Oxford Optronix). […]
To evaluate the selective uptake of MitoSNAP by mitochondria within cells, the effect of MitoSNAP on respiration by Jurkat cells, a T lymphocyte cell line that grows in suspension, was measured using an O2 electrode (FIG. 10). […] Then the effects of a further 30 min incubation with MitoSNAP, MitoNAP or the mitochondrial inhibitor myxathiazol on the steady-state extracellular pO2 was assessed by fluorescence quenching oximetry (FIG. 10e).

liver mitochondria [3] = test: S-nitrosation of mitochondrial protein thiols (chemiluminescence SNO assay); format: biochemical, rat; conditions: 500 μM
Procedure: FIG. 11 is a series of graphs showing S-nitrosation of mitochondrial thiols by MitoSNAP. (a) Time course of S-nitrosation of mitochondrial proteins by MitoSNAP. Liver mitochondria (1 mg protein) were incubated in 1 ml KCl buffer supplemented with rotenone and succinate in the presence of 5 μM MitoSNAP. At various times mitochondria were treated with 10 mM N-ethylmaleimide (NEM), isolated by centrifugation and the S-nitrosothiol content assessed. Data are of a typical experiment showing means±range of duplicate samples for each time point, each measured in duplicate. The experiment was repeated twice. (b) S-nitrosation of mitochondrial proteins by different concentrations of MitoSNAP and SNAP. Aliquots of liver mitochondria were incubated with the indicated concentrations of MitoSNAP or SNAP for […] in the presence or absence of 500 nM FCCP and then assessed for S-nitrosothiol content as in (a). For the +NEM sample, 10 mM NEM was added to the mitochondria and 1 min later 5 μM MitoSNAP was added and incubated for a further 2.5 min. Data are of a typical experiment showing means±range of duplicate samples for each time point, each measured in duplicate. The experiment was repeated twice. (c) S-nitrosation of cellular protein thiols by MitoSNAP. C2C12 cells were preincubated for 5 min in 2 ml cell culture medium containing either 20 μM FCCP or DMSO carrier, then 5 μM MitoSNAP or SNAP was added. After further incubation for 5 min at 37° C. in the dark, the medium was removed and the content of S-nitrosated proteins was measured. Data are means±range of the duplicate determinations. […] (d) S-nitrosation of a mitochondria-enriched cell subfraction. C2C12 cells were preincubated for 5 min in cell culture medium containing either 20 μM FCCP or dimethylsulfoxide (DMSO) carrier, then 5 μM MitoSNAP was added. After 5 min at 37° C. in the dark, the medium was removed and the cells were processed to isolate a mitochondria-enriched fraction and S-nitrosated protein was then determined Data are mean±sem of triplicate determinations (+MitoSNO1), or mean±range of duplicate determinations (+FCCP). (e & f) Visualisation of S-nitrosated mitochondrial proteins by copper/ascorbate-dependent labelling of thiols with a Cy3 fluorophore. Liver (e) or heart (f) mitochondria (1 mg protein) were incubated in 1 ml KCl buffer supplemented with rotenone and succinate in the presence of no additions, 10 μM MitoSNAP or 500 μM diamide for 5 min. S-nitrosated thiols were then selectively tagged with Cy3 maleimide and protein (10 μg) was then separated on a 12.5% SDS PAGE gel which was stained with coomassie blue and scanned for Cy3 fluorescence. The Cy3 fluorescence (SNO) and coomassie staining (coomassie) of each gel is shown.
FIG. 13 is a trace and graph showing limited S-nitrosation of mitochondria by DetaNONOate. […] Where indicated 500 μM DetaNONOate was added and the concentration of NO^• was measured over time, before 5 μM OxyHb was added. […] Then protein pellets were resuspended and processed for analysis of protein S-nitrosothiols. Control incubations in the presence of 10 mM NEM were also carried out. Data are means±range of two independent experiments each being the average of four mitochondrial incubations.
Nitrite, nitric oxide and S-nitrosothiol measurements. Nitrite was analyzed by the Griess assay (Molecular Probes). Nitric oxide was measured using an NO^• electrode (World Precision Instruments Ltd, UK) connected to an Apollo 4000 Free Radical Analyser. The electrode was inserted into a stirred, sealed 3 ml chamber with a Clark type O2 electrode (Rank Brothers, UK) built into its base and was thermostatted at 37° C. The NO^• electrode was calibrated by adding SNAP to argon-purged, saturated CuCl. OxyHb was prepared by reduction of bovine methemoglobin with sodium dithionite.

## O=NSCCCC[P+](c1ccccc1)(c1ccccc1)c1ccccc1.[Br-] [MitoSNO]
Rat liver mitochondria; 5 μM MitoSNO, succinate
  amount taken up into 3 mg protein: 7.5 nmol
Rat liver mitochondria; energized with 10 mM succinate, reversed by FCCP
  uptake by isolated mitochondria: taken up by isolated mitochondria
Rat liver mitochondria; mitochondrial volume ~0.5 μl/mg protein
  concentration within mitochondria: ~5 mM
Rat liver mitochondria; rat liver mitochondria 1 mg protein/ml, 5 μM MitoSNO, succinate
  amount taken up into the mitochondria, as part of the initial external concentration of 5 μM: ~2.5 µM
Rat liver mitochondria; rat liver mitochondria, 5 μM MitoSNO
  effect on mitochondrial respiration: inhibited respiration by NO release
Rat liver mitochondria; relative to 2.5 μM in the external medium
  concentration relative to the external medium: 2000 fold

## CN(C)C(=O)/N=N/C(=O)N(C)C [diamide, reference compound]
Liver mitochondria [1]
  protein-glutathione mixed disulfides (glutathionylation): extensive glutathionylation
[2]
  Cy3 labelling of S-nitrosated proteins: did not label proteins

## CO/C(=C/C(N)=O)[C@H](C)[C@H](/C=C/c1csc(-c2csc([C@@H](C)/C=C/C=C/C(C)C)n2)n1)OC [myxathiazol, reference compound]
HeLa cells
  effect on steady-state extracellular pO2 during hypoxia: increased extracellular O2

## NCCN(CCN)/[N+]([O-])=N/O [Deta-NONOate, 3,3-bis(aminoethyl)-1-hydroxy-2-oxo-1-tri azene, reference compound]
Liver mitochondria [3]
  NO concentration generated compared with 5 μM MitoSNAP: five to ten-fold greater
  S-nitrosation less than that caused by 5 μM MitoSNAP: ~30 fold
Liver mitochondria [3]; 5 min
  S-nitrosation of mitochondrial proteins: ~20 pmol SNO/mg protein
